Source: patent US8318812B2, “Therapeutic agents for the treatment of lymphoid malignancies” (The Ohio State University Research Foundation, priority 2006, dated 2012)

Tests used:
[1] = test system: Raji cells; assay: Raji disseminated lymphoma/leukemia SCID mouse xenograft model; assay type: in vivo, SCID mice
Method: In vivo therapeutic efficacy evaluation in a xenograft model: The in-vivo evaluation of FTY720 was carried out using the disseminated lymphoma bearing SCID mouse xenograft model. This model was generated using human Raji B cell line injected into SCID mice as previously described. Raji cells were cultured in RPMI1640+10% FBS. Confluent cultures with >95% viability were confirmed to express human CD19 by flow cytometry. […] female 6-8 week-old C.B.-17 SCID mice (Taconic Farm, Germantown, N.Y.) were injected with 2×10^6 cells intravenously (i.v) in 200 ul sterile PBS via the tail vein. Seventy two hours post inoculation, the animals were divided into 4 equal treatment groups. […] All the animals were monitored daily for signs of illness and sacrificed immediately if hind limb paralysis, respiratory distress or 30% body weight loss was noted. Body weight was measured once every week. […] The presences of the CD19^+ cells were evaluated in the bone marrow of these mice by flow cytometry. […]

[2] = test system: Cyclin D1; assay: Western blot of Cyclin D1 in Mino cell line; assay type: cell-based, Human
Method: (§1) Primary MCL cells were isolated from PBMC (with informed patient consent under a protocol approved by IRB) as described before. All the MCL patients were identified as outlined by the World Health Organization (WHO) classification. Human mantle cell lymphoma patient cell lines (Mino and Jeko) were obtained from Dr. Raymond Lai. Primary cells or MCL cell lines were incubated in RPMI 1640 media, supplemented with 10%-20% heat-inactivated fetal bovine serum, 2 mM L-glutamine and penicillin (100 U/mL)/streptomycin ([…]) at 37° C. in an atmosphere of 5% CO2. FTY720 was synthesized as previously described. Toxicity was determined by flow cytometry using Annexin-V-FITC and Propidium Iodide (PI) staining. Apoptotic cells were identified as Annexin-V+ and/or PI+ cells. Cells excluding both FITC and PI were considered viable. Western Blotting was performed as described previously using indicated antibodies. […]
(§2) FTY720 induced apoptosis is associated with down-modulation of Cyclin D1 and Akt. […] To determine if the FTY720 induced apoptosis is mediated through modulation of these targets relevant to the pathogenesis of the disease, we evaluated the effect of FTY720 on levels of Cyclin D1, p-Akt and Akt proteins by Wester Blotting analysis using specific antibodies in primary MCL cells and cell lines. […]

[3] = test system: PP2A; assay: PP2A activity in lysates of Ramos B cell line; assay type: cell-based, Human
Method: PP2A Activity: The protein phosphatase activity of total cellular lysate was determined by measuring the generation of free PO4 from the threonine phosphopeptide using the malachite green-phosphate complex assay as described by the manufacturer (Upstate, Charlottesville, […].). Cell lysates were prepared in a low detergent lysis buffer (1% Nonidet P-40, 10 mM HEPES, 0.5M NaCl, 10% Glycerol, 1 mM PMSF, 5 mM Benzamidine, 10 μg/ml leupeptin). The phosphatase assay was performed in a PP2A-specific reaction buffer (Upstate) using 750 μM phosphopeptide substrate. After 30-min incubation at 30° C. malachite dye was added, and free phosphate was measured by optical density at 650 nm. To avoid variability among different immunoprecipitated samples, the phosphatase activities were normalized with the amount of PP2A immunoprecipitated, as detected and quantified by western blot analysis of each treatment group.
In order to determine if FTY720 induced activation of PP2A enzyme in CD19^+ B cells from CLL patients were treated with 10 uM FTY720 for 0, 1, 2, 3, 4 and 15 hrs and the PP2A activity in the lysates were quantified using a functional assay following immunoprecipitation of PP2A enzyme. As reported previously in other systems, FTY720 induced a consistent 2-3 fold increase in PP2A activation with the peak response observed at 4 hour post treatment (FIG. 6a). […]

[4] = test system: Cyclin D1; assay: Western blot of Cyclin D1 in primary MCL cells; assay type: cell-based, Human
Method: as §1, §2

[5] = test system: AML cell lines; assay: Annexin V/PI apoptosis assay in AML cell lines; assay type: cell-based; settings: 48 hours
Method: Cell cultures were exposed to vehicle control and increasing doses of FTY720 for 48 hours. Cells were then stained with Annexin V (AnnV) and propidium iodide (PI), and analyzed using routine flow cytometry. Percentage of viable cells (AnnV− PI−), cells undergoing apoptosis (AnnV+ PI−), and necrotic cells (AnnV+ PI+) are represented for each cell line studied in FIG. 10A.

CCCCCCCCc1ccc(CCC(N)(CO)CO)cc1.Cl [FTY720, 2-Amino-2-[2-(4-octylphenyl)ethyl]propane 1,3-diol hydrochloride]
median survival time ([1]; FTY720 5 mg/kg every day for 2 weeks i.p., 95% CI 39-53): 47 days | mice surviving without signs of disease ([1]; after a follow-up period of 200 days): 4 of the 12 | reduction in Cyclin D1 [2]: pronounced inhibition seen as early as 24 hrs | earliest time of FTY720 induced PP2A activation [3]: 3 h | down-regulation of Cyclin D1 protein ([4]; 8 hrs post treatment): 35% | down-regulation of Cyclin D1 protein ([4]; 24 hrs): 70% | apoptosis in AML cell lines [5]: induces apoptosis
